Experimental data: US10471046B2, “Method for treating, preventing, or reducing the risk of skin infection” (Melinta Subsidiary Corp., priority 2014, dated 2019)
≈ marks a conversion by molar mass, not a printed value.

system: S. aureus; assay: Minimum inhibitory concentrations (MICs) for S. aureus of exemplary compounds (Table 2); type: cell-based; conditions: Staphylococcus aureus, minimum inhibitory concentrations for S. aureus; read-out: MICs
Summary of the method: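 MICs (μg/mL) against S. aureus come from microtiter-tray dilution susceptibility testing per NCCLS M7-A5, comparing growth with and without compound.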

MIC | SMILES
0.25 µg/mL (≈ 0.501 µM) | CC(=O)NC[C@H]1CN(c2ccc(-c3ccc(CNNC(=O)c4snnc4C)cc3)c(F)c2)C(=O)O1 [Compound 4271, N-(3-{2-Fluoro-4′-[N′-(4-methyl-[1,2,3]thiadiazole-carbonyl)-hydrazinomethyl]-biphenyl-4-yl}-2-oxo-oxazolidin-5-(S)-ylmethyl)-acetamide]
0.5 µg/mL (≈ 1.06 µM) | CCSc1nnn(Cc2ccc(-c3ccc(N4C[C@H](CNC(C)=O)OC4=O)cc3F)cc2)n1 [Compound 1082, N-{3-[4′-(5-Ethylsulfanyl-tetrazol-2-ylmethyl)-2-fluoro-biphenyl-4-yl]-2-oxo-oxazolidin-5-(S)-ylmethyl}-acetamide]
4 µg/mL (≈ 8.36 µM) | CC(=O)NC[C@H]1CN(c2ccc(-c3ccc([C@H](CO)NCc4ccncc4)cc3)c(F)c2)C(=O)O1 [Compound 4202, N-[3-(2-Fluoro-4′-{2-hydroxy-1-(R)-[(pyridin-4-ylmethyl)-amino]-ethyl}-biphenyl-4-yl)-2-oxo-oxazolidin-5-(S)-ylmethyl]-acetamide]
16 µg/mL (≈ 35.5 µM) | CC(=O)NC[C@H]1CN(c2ccc(-c3ccc(C(=N)NCc4ccco4)cc3)c(F)c2)C(=O)O1 [Compound 4222, N-{3-[2-Fluoro-4′-(N-furan-2-ylmethyl-carbamimidoyl)-biphenyl-4-yl]-2-oxo-oxazolidin-5-(S)-ylmethyl}-acetamide]
32 µg/mL (≈ 68.7 µM) | CC(=O)NC[C@H]1CN(c2ccc(-c3ccc(CNCCCn4ccnc4)cc3)c(F)c2)C(=O)O1 [Compound 4079, N-(3-{2-Fluoro-4′-[(3-imidazol-1-yl-propylamino)-methyl]-biphenyl-4-yl}-2-oxo-oxazolidin-5-(S)-ylmethyl)-acetamide]
2 µg/mL (≈ 4.31 µM) | CC(=O)NC[C@H]1CN(c2ccc(-c3ccc(CNCc4cccnc4N)cc3)c(F)c2)C(=O)O1 [Compound 4152, N-[3-(4′-{[(2-Amino-pyridin-3-ylmethyl)-amino]-methyl}-2-fluoro-biphenyl-4-yl)-2-oxo-oxazolidin-5-(S)-ylmethyl]-acetamide]
2 µg/mL (≈ 4.54 µM) | CC(=O)NC[C@H]1CN(c2ccc(-c3ccc(CNC(=O)C4(N)CC4)cc3)c(F)c2)C(=O)O1 [Compound 4321, 1-Amino-cyclopropanecarboxylic acid {4′-[5-(S)-(acetylamino-methyl)-2-oxo-oxazolidin-3-yl]-2′-fluoro-biphenyl-4-ylmethyl}-amide]
1 µg/mL (≈ 2.07 µM) | CC(=O)NC[C@H]1CN(c2ccc(-c3ccc(C(=O)NCCc4cnc[nH]4)c(F)c3)c(F)c2)C(=O)O1 [Compound 4191, 4′-[5-(S)-(Acetylamino-methyl)-2-oxo-oxazolidin-3-yl]-3,2′-difluoro-biphenyl-4-carboxylic acid [2-(3H-imidazol-4-yl)-ethyl]-amide]
8 µg/mL (≈ 17.1 µM) | CC(=O)NC[C@H]1CN(c2ccc(-c3ccc(CNC(=O)C4CCC(=O)N4)cc3)c(F)c2)C(=O)O1 (stereo partly drawn) [Compound 4289, 5-Oxo-pyrrolidine-2-carboxylic acid {4′-[5-(S)-(acetylamino-methyl)-2-oxo-oxazolidin-3-yl]-2′-fluoro-biphenyl-4-ylmethyl}-amide]
0.5 µg/mL (≈ 1 µM) | CC(=O)NC[C@H]1CN(c2ccc(-c3ccc(CNCc4ccc5ccccc5n4)cc3)c(F)c2)C(=O)O1 [Compound 4019, N-[3-(2-Fluoro-4′-{[(quinolin-2-ylmethyl)-amino]-methyl}-biphenyl-4-yl)-2-oxo-oxazolidin-5-(S)-ylmethyl]-acetamide]
0.25 µg/mL (≈ 0.553 µM) | CC(=O)NC[C@H]1CN(c2ccc(-c3ccc(CNCc4cc(C)on4)cc3)c(F)c2)C(=O)O1 [Compound 4229, N-[3-(2-Fluoro-4′-{[(5-methyl-isoxazol-3-ylmethyl)-amino]-methyl}-biphenyl-4-yl)-2-oxo-oxazolidin-5-(S)-ylmethyl]-acetamide]
0.5 µg/mL (≈ 1.22 µM) | CC(=O)NC[C@H]1CN(c2ccc(-c3ccc(Cn4cnnn4)nc3)c(F)c2)C(=O)O1 [Compound 1035, N-{3-[3-Fluoro-4-(6-tetrazol-1-ylmethyl-pyridin-3-yl)-phenyl]-2-oxo-oxazolidin-5-(S)-ylmethyl}-acetamide]
0.25 µg/mL (≈ 0.57 µM) | CC(=O)NC[C@H]1CN(c2ccc(-c3ccc(CNCc4cnoc4)cc3)c(F)c2)C(=O)O1 [Compound 4038, N-[3-(2-Fluoro-4′-{[(isoxazol-4-ylmethyl)-amino]-methyl}-biphenyl-4-yl)-2-oxo-oxazolidin-5-(S)-ylmethyl]-acetamide]
16 µg/mL (≈ 32.2 µM) | CC(=O)NC[C@H]1CN(c2ccc(-c3ccc(CNC(=O)Cn4cc(CO)nn4)cc3)c(F)c2)C(=O)O1 [Compound 4240, N-{4′-[5-(S)-(Acetylamino-methyl)-2-oxo-oxazolidin-3-yl]-2′-fluoro-biphenyl-4-ylmethyl}-2-(4-hydroxymethyl-[1,2,3]triazol-1-yl)-acetamide]
0.5 µg/mL (≈ 1.18 µM) | CC(=O)NC[C@H]1CN(c2ccc(-c3ccc(Cn4nnnc4C)cc3)c(F)c2)C(=O)O1 [Compound 1058, N-{3-[2-Fluoro-4′-(5-methyl-tetrazol-1-ylmethyl)-biphenyl-4-yl]-2-oxo-oxazolidin-5-(S)-ylmethyl}-acetamide]
2 µg/mL (≈ 3.64 µM) | CSCCNc1ncnc2c1ncn2Cc1ccc(-c2ccc(N3C[C@H](CNC(C)=O)OC3=O)cc2F)cc1 [Compound 1108]

MIC | SMILES
0.25 µg/mL (≈ 0.551 µM) | CC(=O)NC[C@H]1CN(c2ccc(-c3ccc(CNCc4nnnn4C)cc3)c(F)c2)C(=O)O1 [Compound 4283, N-[3-(2-Fluoro-4′-{[(1-methyl-1H-tetrazol-5-ylmethyl)-amino]-methyl}-biphenyl-4-yl)-2-oxo-oxazolidin-5-(S)-ylmethyl]-acetamide]
2 µg/mL (≈ 4.38 µM) | CC(=O)NC[C@H]1CN(c2ccc(-c3ccc(C[S+]([O-])c4ncc[nH]4)cc3)c(F)c2)C(=O)O1 (stereo partly drawn) [Compound 2038, N-{3-[2-Fluoro-4′-(1H-imidazole-2-sulfinylmethyl)-biphenyl-4-yl]-2-oxo-oxazolidin-5-(S)-ylmethyl}-acetamide]
1 µg/mL (≈ 2.42 µM) | CC(=O)NC[C@H]1CN(c2ccc(-c3ccc(CN4CCCO4)cc3)c(F)c2)C(=O)O1 [Compound 1112, N-[3-(2-Fluoro-4′-isoxazolidin-2-ylmethyl-biphenyl-4-yl)-2-oxo-oxazolidin-5-(S)-ylmethyl]-acetamide]
8 µg/mL (≈ 17.6 µM) | CC(=O)NC[C@H]1CN(c2ccc(-c3ccc(CNCc4n[nH]c(=O)[nH]4)cc3)c(F)c2)C(=O)O1 [Compound 4178, N-[3-(2-Fluoro-4′-{[(5-(S)-oxo-4,5-dihydro-1H-[1,2,4]triazol-3-ylmethyl)-amino]-methyl}-biphenyl-4-yl)-2-oxo-oxazolidin-5-(S)-ylmethyl]-acetamide]
4 µg/mL (≈ 9.67 µM) | CC(=O)NC[C@H]1CN(c2ccc(-c3ccc(CNCC4CO4)cc3)c(F)c2)C(=O)O1 (stereo partly drawn) [Compound 4210, N-(3-{2-Fluoro-4′-[(oxiranylmethyl-amino)-methyl]-biphenyl-4-yl}-2-oxo-oxazolidin-5-(S)-ylmethyl)-acetamide]
0.25 µg/mL (≈ 0.548 µM) | CC(=O)NC[C@H]1CN(c2ccc(-c3ccc(CSc4nnnn4C)cc3)c(F)c2)C(=O)O1 [Compound 2015, N-{3-[2-Fluoro-4′-(1-methyl-1H-tetrazol-5-ylsulfanylmethyl)-biphenyl-4-yl]-2-oxo-oxazolidin-5-(S)-ylmethyl}-acetamide]
8 µg/mL (≈ 18.2 µM) | CC(=O)NC[C@H]1CN(c2ccc(-c3ccc(CNC(=O)C4CNC4)cc3)c(F)c2)C(=O)O1 [Compound 4291, Azetidine-3-carboxylic acid {4′-[5-(S)-(acetylamino-methyl)-2-oxo-oxazolidin-3-yl]-2′-fluoro-biphenyl-4-ylmethyl}-amide]
2 µg/mL (≈ 4.42 µM) | CC(=O)NC[C@H]1CN(c2ccc(-c3ccc(CNCc4[nH]nnc4C)cc3)c(F)c2)C(=O)O1 [Compound 4269, N-[3-(2-Fluoro-4′-{[(5-methyl-3H-[1,2,3]triazol-4-ylmethyl)-amino]-methyl}-biphenyl-4-yl)-2-oxo-oxazolidin-5-(S)-ylmethyl]-acetamide]
8 µg/mL | CC(=O)NC[C@H]1CN(c2ccc(-c3ccc(C(C)NCc4ccncc4)cc3)c(F)c2)C(=O)O1 (mixture of isomers) [Compound 4232, N-[3-(2-Fluoro-4′-{1-(R/S)-[(pyridin-4-ylmethyl)-amino]-ethyl}-biphenyl-4-yl)-2-oxo-oxazolidin-5-(S)-ylmethyl]-acetamide]
2 µg/mL (≈ 4.01 µM) | CC(=O)NC[C@H]1CN(c2ccc(-c3ccc(CNCc4ccc5ncccc5c4)cc3)c(F)c2)C(=O)O1 [Compound 4071, N-[3-(2-Fluoro-4′-{[(quinolin-6-ylmethyl)-amino]-methyl}-biphenyl-4-yl)-2-oxo-oxazolidin-5-(S)-ylmethyl]-acetamide]
1 µg/mL (≈ 2.22 µM) | CC(=O)NC[C@H]1CN(c2ccc(-c3ccc(COCc4ccccn4)nc3)c(F)c2)C(=O)O1 [Compound 4195, N-(3-{3-Fluoro-4-[6-(pyridin-2-ylmethoxymethyl)-pyridin-3-yl]-phenyl}-2-oxo-oxazolidin-5-(S)-ylmethyl)-acetamide]
0.25 µg/mL (≈ 0.574 µM) | CC(=O)NC[C@H]1CN(c2ccc(-c3ccc(Cn4ccc(C=O)c4)cc3)c(F)c2)C(=O)O1 [Compound 1055, N-{3-[2-Fluoro-4′-(3-formyl-pyrrol-1-ylmethyl)-biphenyl-4-yl]-2-oxo-oxazolidin-5-(S)-ylmethyl}-acetamide]
4 µg/mL (≈ 9.82 µM) | O=C1O[C@@H](CO)CN1c1ccc(-c2ccc(CNCc3ccncc3)cc2)c(F)c1 [Compound 4213, 3-(2-Fluoro-4′-{[(pyridin-4-ylmethyl)-amino]-methyl}-biphenyl-4-yl)-5-(R)-hydroxymethyl-oxazolidin-2-one]
4 µg/mL (≈ 8.14 µM) | CC(=O)NC[C@H]1CN(c2ccc(-c3ccc(CNC(C(N)=O)c4cccnc4)cc3)c(F)c2)C(=O)O1 (stereo partly drawn) [Compound 4293, 2-({4′-[5-(S)-(Acetylamino-methyl)-2-oxo-oxazolidin-3-yl]-2′-fluoro-biphenyl-4-ylmethyl}-amino)-2-pyridin-3-yl-acetamide]
1 µg/mL (≈ 1.81 µM) | CC(=O)NC[C@H]1CN(c2ccc(-c3ccc(CN(Cc4nnnn4C)C(=O)OC(C)(C)C)cc3)c(F)c2)C(=O)O1 [Compound 4280, {4′-[5-(S)-(Acetylamino-methyl)-2-oxo-oxazolidin-3-yl]-2′-fluorobiphenyl-4-ylmethyl}-(1-methyl-1H-tetrazol-5-ylmethyl)-carbamic acid tert-butyl ester]
